The test system of one data set is Neuro-2a cells. Nature of the data set: Glutamate-induced Neuro-2a cell death (LDH release). The data set is classed as cell-based, mouse. As to the method:
Neuro-2a cells were seeded in 48-well culture plates (1.5×10^5 cells/well) for 24 h, and then cultured in 0.5 ml fresh 2% FBS-DMEM medium containing 20 μM of the present peptide (7 μg of 6-mer in 0.5 ml medium) for further 4 h. Subsequently, 100 mM glutamate (from 1 M stock and PBS as solvent) was added to cells for further 6 h. Glutamate-induced cell death was quantitatively assessed by measuring lactate dehydrogenase (LDH) activity released into the culture medium by damaged cells. LDH activity was measured using PicoProbe™ LDH-Cytotoxicity Fluorometric Assay Kit (Catalog #K314-500; BioVision) according to the instruction manuals. LDH activity was estimated using an automated microplate reader (UVmax; Molecular Devices, San Francisco, CA) by measuring the fluorescent product (Ex/Em=535/587 nm).
Briefly, cells were pretreated with the designated peptide (i.e., any of SEQ ID NOs: 2 to 11) for 4 h and then treated with 100 mM glutamate for 6 h. The cell death was detected by a commercial lactate dehydrogenase (LDH) Cytotoxicity Assay Kit. Results are depicted in FIG. 1.
A general note: LDH leaks from cells whose membrane has failed.

The test system of data set [1] is Sprague-Dawley rats, retinal ischemia/reperfusion (I/R) injury. Nature of the data set: Immunofluorescence staining of retinal microglia/astrocytes 14 days after I/R injury. As to conditions: rat. In kind it is in vivo. Here is the method:
Experimental procedures were approved by the Mackay Memorial Hospital Review Board (Taiwan, R.O.C.). All surgeries were performed under aseptic conditions. Adult 10-week-old male Sprague-Dawley rats (initial body weight=312±11 g) were anesthetized by an intraperitoneal injection of xylazine (10 mg/kg). Peptide was dissolved in 0.85% normal saline to 1 mM and delivered by the subconjunctival injection of 100 μL peptide through a 31-Gneedle with a micro-syringe before the induction of I/R. Normal saline was as a vehicle control. Rat I/R was performed after peptide or vehicle injection for 4 h. Pupils were dilated with 0.5% tropicamide and 0.5% phenylephrine. Body temperature was maintained at 37° C. using a heating blanket After dilation of the pupil, the anterior chamber of the right eye was cannulated with a 27-gauge needle connected to a physiological saline reservoir. The intraocular pressure (IOP) was raised to 110 mmHg by keeping the reservoir at 150 cm above the eye, and retinal ischemia was confirmed by observing whitening of the iris and the loss of the red reflex of the retina. After 90 min of ischemia, the cannulating needle was withdrawn and the IOP was returned to normal pressure, resulting in recovery of the blood supply from the retinal artery and reperfusion injury induced. The reperfusion was evident by the return of the red reflex. Corneal analgesia was achieved using 1 or 2 drops of 0.4% oxybuprocaine hydrochloride, and Ofloxacin ophthalmic gel (0.3%) was applied topically to the eye before and after the procedure. […]
Deparaffinized retinal sections were blocked with 10% goat serum and 5% bovine serum albumin (BSA) in PBS containing 0.5% TritonX-100 (PBST) for 20 min at room temperature for blocking nonspecific staining. […] The slides were then rinsed with PBST three times, mounted with FluorSave™ reagent (Calbiochem) and viewed with an epifluorescence microscope (Zeiss Axioplan 2 imaging; Zeiss, Oberkochen, Germany) Three sections per eye were averaged and the mean of six eyes was recorded as the representative value for each group.

Data set [2] shares this test system. Nature of the data set: Retinal vasculature analysis (acellular capillaries) 14 days after I/R injury. In kind it is in vivo. Particulars: rat. As to the method: Experimental procedures were approved by the Mackay Memorial Hospital Review Board (Taiwan, R.O.C.). All surgeries were performed under aseptic conditions. Adult 10-week-old male Sprague-Dawley rats (initial body weight=312±11 g) were anesthetized by an intraperitoneal injection of xylazine (10 mg/kg). Peptide was dissolved in 0.85% normal saline to 1 mM and delivered by the subconjunctival injection of 100 μL peptide through a 31-Gneedle with a micro-syringe before the induction of I/R. Normal saline was as a vehicle control. Rat I/R was performed after peptide or vehicle injection for 4 h. Pupils were dilated with 0.5% tropicamide and 0.5% phenylephrine. Body temperature was maintained at 37° C. using a heating blanket After dilation of the pupil, the anterior chamber of the right eye was cannulated with a 27-gauge needle connected to a physiological saline reservoir. The intraocular pressure (IOP) was raised to 110 mmHg by keeping the reservoir at 150 cm above the eye, and retinal ischemia was confirmed by observing whitening of the iris and the loss of the red reflex of the retina. After 90 min of ischemia, the cannulating needle was withdrawn and the IOP was returned to normal pressure, resulting in recovery of the blood supply from the retinal artery and reperfusion injury induced. The reperfusion was evident by the return of the red reflex. Corneal analgesia was achieved using 1 or 2 drops of 0.4% oxybuprocaine hydrochloride, and Ofloxacin ophthalmic gel (0.3%) was applied topically to the eye before and after the procedure. Only the right eye was used in all experiments. A sham procedure was performed at left eye served as an intra-animal control.
Rats (n=6 in each group) were euthanized using an overdose of pentobarbital at 14 days after I/R injury, the eyeballs were fixed with 4% PFA for overnight at 4° C. […] Ten sections per eye were averaged and the mean of six eyes was recorded as the representative value for each group.

In data set [3] the test system is C57BL/6 mice, dry eye induced in controlled environment chamber (CEC). In words: Dry eye animal model, corneal fluorescein staining. The data set is classed as in vivo, mouse. As to conditions: mice 14 days in CEC, then 100 μM peptide eye drop three times a day for 4 days (Day 4); day 0 score 3±0. Here is the method:
Dry eyes were induced by placing mice in a controlled environment chamber (CEC) for 14 days in accordance with procedures previously described by Barabino et al (IVOS (2005) 46(8), 2766-2771). Mice placed in the CEC were exposed to a condition, in which relative humidity (RH) was maintained at <25%, temperature at 20-22° C., and airflow at about 15 L/min, for 12 hours per day. Control mice were kept in a normal environment (RH>50%, no air flow, temperature of 20-22° C.) for the same duration.
A common artificial tear formulation, 1% carboxymethylcelllulose (CMC) dissolved in balanced salt solution (BSS) was used as the peptide vehicle. Peptide (100 μM, about 0.7 μg peptide in 10 μl eye drop used for treating one eye) or 1% CMC vehicle was topically administered to eyes three times a day. To test whether the present synthetic peptide could exert any therapeutic action on dry eyes, mice were housed at CEC for 14 days without topical treatment, and then were treated with the present peptide for 4 days.
Animals were anesthetized by an intraperitoneal injection of a mixture of zoletil (6 mg/kg) and xylazine (3 mg/kg). Corneal epithelial injury was determined by staining with topical fluorescein (Fluor-I-Strip, Ayerst Laboratories, Philadelphia, PA). Corneal fluorescein staining was examined with a slit-lamp biomicroscope under cobalt blue light and photographed with a digital camera. Dye staining of the cornea was scored in a blinded manner as follows: score 0 for no punctuate staining; score 1 when less than one third of the cornea was stained; score 2 when two thirds or less was stained; and score 3 when more than two thirds was stained (Horwath-Winter J 2013).
Briefly, mice were housed at controlled environment chamber (CEC) for 14 days (set as Day 0) to induce corneal surface disruption. Corneal fluorescein staining was used to estimate the corneal surface injury and the animal with a staining score of 2 (after mice placed at CEC for 14 days) was subjected to peptide treatment. The 6-mer variant peptide formulation for the treatment of DED was described in Methods. […]

As to “NH2-(D-Ser)-Leu-Gly-Ala-Glu-Gln-COOH (SLGAEQ; HELM PEPTIDE1{[dS].L.G.A.E.Q}$$$$V2.0; SMILES CC(C)C[C@H](NC(=O)[C@H](N)CO)C(=O)NCC(=O)N[C@@H](C)C(=O)N[C@@H](CCC(=O)O)C(=O)N[C@@H](CCC(N)=O)C(=O)O) [6-mer dS]”, the “glutamate-induced cell death (LDH release into the medium)” value in the data set with Neuro-2a cells (Neuro-2a cells, 20 μM peptide pretreatment 4 h, then 100 mM glutamate 6 h, solvent/glutamate control 7.6±0.8%) came to 1.5±0.5%. Besides, in the data set on Neuro-2a cells (glutamate-induced cell death), the “protective effect on Neuro-2a cells (neuroprotective activity), in words” value is given as “exhibited protective effect on Neuro-2a cells”. The “activation of Iba-1-positive microglial cells and GFAP-positive astrocytes, in words” value in data set [1] is recorded as “less prominent”. Moreover, the “Iba-1-positive Microglia” value in data set [1] (Control 3.3 ± 1.2, Vehicle + I/R 24.7 ± 1.6) is listed as 5.8 ± 1.0 /400 × field. The “GFAP-positive astrocytes” value in data set [1] (Control 6.9 ± 2.0, Vehicle + I/R 28.6 ± 2.2) is reported as 10.3 ± 1.8 /400 × field. The “number of degenerate capillaries, in words” value in data set [2] (14 days after I/R injury) was “The number of degenerate capillaries was reduced”. The “Number of acellilar capillaries” value in data set [2] (14 days post-ischemia, Vehicle + I/R 7.2 ± 0.9) is 2.3 ± 0.7 /mm^2. Moreover, in data set [2] (sham testing in contralateral eye), the “cytotoxic effect on retinal vasculature” value is on record as “had no cytotoxic effect on retinal vasculature”. For the same substance, the “corneal fluorescein staining score” value in data set [3] turned out to be 1.4±0.2 score.

For the origin of these results see patent publication US12221494B2, “Short synthetic peptides and their uses for treating retinal degenerative diseases and/or tissue injuries” (MacKay Memorial Hospital, priority 2019, dated 2025).
